Assays:
[1] = biological target: Human 11-β-HSD1 (Homo sapiens, UniProt P28845); assay: Measurement of 11β-HSD1 activity (SPA, 3H-cortisone, membrane), human enzyme; type: biochemical; settings: 125 nM 3H-cortisone, 3 mM NADPH, 0.5 μg membrane, room temperature 1 hr
Experimental: (§1) Measurement of 11β-HSD1 activity
(§2) The reaction was incubated at room temperature for 1 hr before it was stopped by addition of […] containing 20 mM NaPO4 pH 7.5, 30 μM 18β-glycyrrhetinic acid, 1 μg/ml monoclonal anti-cortisol antibody (Biosource) and 2 mg/ml anti-mouse antibody coated scintillation proximity assay (SPA) beads (Amersham Bioscience). The mixture was incubated at room temperature for 2 hrs with vigorous shaking and analyzed on TopCount scintillation counter.

[2] = biological target: Mouse 11-β-HSD1 (Mus musculus, UniProt P50172); assay: Measurement of 11β-HSD1 activity (SPA, 3H-cortisone, membrane), mouse enzyme; type: biochemical; settings: 125 nM 3H-cortisone, 3 mM NADPH, 0.5 μg membrane, room temperature 1 hr
Experimental: as §1, §2

Sequence of Mouse 11-β-HSD1 (P50172 whole entry): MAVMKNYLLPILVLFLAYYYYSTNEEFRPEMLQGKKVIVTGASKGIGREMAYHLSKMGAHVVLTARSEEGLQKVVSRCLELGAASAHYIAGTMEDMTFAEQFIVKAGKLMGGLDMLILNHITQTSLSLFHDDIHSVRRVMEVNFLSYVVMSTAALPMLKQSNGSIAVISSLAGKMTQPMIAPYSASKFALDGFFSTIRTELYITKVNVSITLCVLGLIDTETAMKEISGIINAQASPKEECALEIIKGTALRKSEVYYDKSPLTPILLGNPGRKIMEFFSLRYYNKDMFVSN
Sequence of Human 11-β-HSD1 (P28845 whole entry): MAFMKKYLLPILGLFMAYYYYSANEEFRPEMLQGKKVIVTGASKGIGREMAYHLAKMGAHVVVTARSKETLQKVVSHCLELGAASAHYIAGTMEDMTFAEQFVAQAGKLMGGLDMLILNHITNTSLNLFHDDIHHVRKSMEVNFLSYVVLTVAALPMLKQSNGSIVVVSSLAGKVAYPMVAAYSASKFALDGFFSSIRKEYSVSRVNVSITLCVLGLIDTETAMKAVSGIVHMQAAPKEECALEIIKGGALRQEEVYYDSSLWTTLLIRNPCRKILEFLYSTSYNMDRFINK

Compound: COc1ccc(S(=O)(=O)N2CC=C(c3ccccc3)CCC2)cc1 [Compound 40]
- IC50 [1]: 178 nM
- IC50 [2]: 1550 nM

Compound: CC(C)(C)c1ccc(S(=O)(=O)N2CCCN(C3CCCC3)CC2)cc1 [Compound 43]
- IC50 [1]: 30 nM
- IC50 [2]: 263 nM

Compound: CC(C)(C)c1ccc(S(=O)(=O)N2CCCC(O)CC2)cc1 (centres unmarked) [Compound 11]
- IC50 [1]: 466 nM
- IC50 [2]: 629 nM

Compound: COc1ccc(S(=O)(=O)N2CCCC(O)(c3ccccc3)CC2)cc1 (centres unmarked) [Compound 1]
- IC50 [1]: 1320 nM
- IC50 [2]: 1980 nM

Compound: COC1(C)CCCN(S(=O)(=O)c2ccc(C(C)(C)C)cc2)CC1 (centres unmarked) [Compound 18]
- IC50 [1]: 3 nM
- IC50 [2]: 57 nM

Compound: CC(C)(C)c1ccc(S(=O)(=O)N2CCCNCC2)cc1 [Compound 45]
- IC50 [1]: 3740 nM
- IC50 [2]: 2300 nM

Compound: CC(=O)N1CCCN(S(=O)(=O)c2ccc(C(C)(C)C)cc2)CC1 [Compound 44]
- IC50 [1]: 254 nM
- IC50 [2]: 2540 nM

Compound: COC1CCCN(S(=O)(=O)c2ccc(C(C)(C)C)cc2)CC1 (centres unmarked) [Compound 12]
- IC50 [1]: 7 nM
- IC50 [2]: 165 nM

Compound: CC(C)(C)OC(=O)N1CCCN(S(=O)(=O)c2ccc(C(C)(C)C)cc2)CC1 [Compound 46]
- IC50 [1]: 256 nM
- IC50 [2]: 2760 nM

Compound: O=S(=O)(c1ccc(Cl)cc1)N1CCCC(O)(c2ccccc2)CC1 (centres unmarked) [Compound 6]
- IC50 [1]: 1070 nM
- IC50 [2]: 2720 nM

Compound: CC(C)(C)c1ccc(S(=O)(=O)N2CCCN(C3CC4CCC3C4)CC2)cc1 (centres unmarked) [Compound 47]
- IC50 [1]: 19 nM
- IC50 [2]: 102 nM

Compound: CC(=O)c1ccc(S(=O)(=O)N2CCCC(C)(O)CC2)cc1 (centres unmarked) [Compound 29]
- IC50 [1]: 5250 nM
- IC50 [2]: > 10000 nM

Compound: COc1ccc(S(=O)(=O)N2CCC=C(c3ccccc3)CC2)cc1 [Compound 34]
- IC50 [1]: 58 nM
- IC50 [2]: 1880 nM

Source: patent publication US20110129542A1, “SUBSTITUTED AZEPINE- AND DIAZEPINE-SULFONAMIDES USEFUL TO INHIBIT 11BETA-HYDROXYSTEROID DEHYDROGENASE TYPE-1” (Schering Corporation, priority 2007, published 2011)
